Test system in one data set: not given
Assay: not given
Details: not given
The melting point is the temperature, or range, at which the solid turns liquid. Consider `Nc1nc(SCc2nc(C3CC3)no2)ncc1Cc1ccccc1` [Example 33, 5-Benzyl-2-(3-cyclopropyl-[1,2,4]oxadiazol-5-ylmethylsulfanyl)-pyrimidin-4-ylamine], for which the melting point was determined as 94 °C.

The next data set deals with T1, rat mGlu 5a receptor (Rattus norvegicus, UniProt P31424).
T1 construct: expressed in transfected cells; host or cells: EBNA cells (transient transfection)
T1 sequence (P31424 21-1171 isoform P31424-2 limits assumed): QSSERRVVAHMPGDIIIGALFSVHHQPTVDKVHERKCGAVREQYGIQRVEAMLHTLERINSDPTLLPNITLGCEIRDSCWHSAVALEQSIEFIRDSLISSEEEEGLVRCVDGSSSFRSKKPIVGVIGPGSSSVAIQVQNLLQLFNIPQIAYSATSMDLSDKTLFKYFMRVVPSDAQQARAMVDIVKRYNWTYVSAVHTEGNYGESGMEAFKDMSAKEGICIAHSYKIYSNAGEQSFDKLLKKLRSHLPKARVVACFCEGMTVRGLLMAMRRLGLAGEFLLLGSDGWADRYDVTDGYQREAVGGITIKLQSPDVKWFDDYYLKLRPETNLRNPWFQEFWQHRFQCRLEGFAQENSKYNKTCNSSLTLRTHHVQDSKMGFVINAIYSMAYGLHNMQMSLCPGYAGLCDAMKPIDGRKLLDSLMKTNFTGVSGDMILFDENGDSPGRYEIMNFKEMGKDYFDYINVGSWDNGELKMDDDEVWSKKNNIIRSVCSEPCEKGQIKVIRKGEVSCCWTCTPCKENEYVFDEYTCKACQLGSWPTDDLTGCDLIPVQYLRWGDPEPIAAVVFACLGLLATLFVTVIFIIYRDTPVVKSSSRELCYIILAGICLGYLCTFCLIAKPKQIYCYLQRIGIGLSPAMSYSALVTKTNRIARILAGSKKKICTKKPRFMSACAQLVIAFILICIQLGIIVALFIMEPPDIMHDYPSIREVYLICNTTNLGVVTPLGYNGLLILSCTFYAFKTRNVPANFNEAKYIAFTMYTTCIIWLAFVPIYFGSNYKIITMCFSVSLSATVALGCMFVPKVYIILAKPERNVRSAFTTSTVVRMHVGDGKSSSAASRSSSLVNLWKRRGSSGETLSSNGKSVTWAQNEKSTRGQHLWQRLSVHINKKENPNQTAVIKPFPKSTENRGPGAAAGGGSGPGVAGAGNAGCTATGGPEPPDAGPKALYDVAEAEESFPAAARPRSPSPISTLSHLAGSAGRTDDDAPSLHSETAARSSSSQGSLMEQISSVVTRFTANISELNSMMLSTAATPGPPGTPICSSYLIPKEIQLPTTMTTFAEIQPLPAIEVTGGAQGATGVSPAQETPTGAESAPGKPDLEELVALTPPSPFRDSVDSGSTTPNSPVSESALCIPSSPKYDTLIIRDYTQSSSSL
Kind of data set: [Ca2+]i measurement (FLIPR) on mGlu 5a transfected EBNA cells, antagonist mode. It counts as cell-based. The note with it: rat mGlu 5a transiently transfected EBNA cells; Fluo 3-AM; tested against 10 μM glutamate as agonist. The protocol:
The pharmacological activity of the compounds was tested using the following method:
cDNA encoding rat mGlu 5a receptor was transiently transfected into EBNA cells using a procedure described by E. -J. Schlaeger and K. Christensen (Cytotechnology 1998, 30, 71–83). [Ca^2+]i measurements were performed on mGlu 5a transfected EBNA cells after incubation of the cells with Fluo 3-AM (obtainable by FLUKA, 0.5 μM final concentration) for 1 hour at 37° C. followed by 4 washes with assay buffer (DMEM supplemented with Hank's salt and 20 mM HEPES. [Ca^2+]i measurements were done using a fluorometric imaging plate reader (FLIPR, Molecular Devices Corporation, La Jolla, Calif., USA). When compounds were evaluated as antagonists they were tested against 10 μM glutamate as agonist.
The inhibition (antagonists) curves were fitted with a four parameter logistic equation giving IC50, and Hill coefficient using the iterative non linear curve fitting software Origin (Microcal Software Inc., Northampton, Mass., USA).
What is called IC50 is the concentration at which inhibition is half-maximal. Read a low IC50 as greater potency. As to `CC1CC1COC(=O)CSc1ncc(Cc2ccccc2)c(N)n1` (centres unmarked) [Example 24, (4-Amino-5-benzyl-pyrimidin-2-ylsulfanyl)-acetic acid 2-methyl-cyclopropylmethyl ester], the IC50 amounted to 630 nM.
Consider `CCOC(=O)CSc1ncc(-c2ccc(Cl)cc2Cl)c(N)n1` [Example 5, [4-Amino-5-(2,4-dichloro-phenyl)-pyrimidin-2-ylsulfanyl]-acetic acid ethyl ester], for which the half-maximal inhibitory concentration (IC50) worked out at 3850 nM.
The compound `C#CCSc1ncc(Cc2cccs2)c(N)n1` [Example 8, 2-Prop-2-ynylsulfanyl-5-thiophen-2-ylmethyl-pyrimidin-4-ylamine] showed an IC50 of 1390 nM.
Same read-out and setting: the value for `CCOC(=O)CSc1ncc(Cc2ccoc2)c(N)n1` [Example 13, (4-Amino-5-furan-3-ylmethyl-pyrimidin-2-ylsulfanyl)-acetic acid ethyl ester] was 160 nM; that for `Nc1nc(SCC(=O)OCC2CCC2)ncc1Cc1ccccc1` [Example 25, (4-Amino-5-benzyl-pyrimidin-2-ylsulfanyl)-acetic acid cyclobutylmethyl ester] was 1460 nM.
Consider `CCOC(=O)CSc1ncc(Cc2ccsc2)c(N)n1` [Example 12, (4-Amino-5-thiophen-3-ylmethyl-pyrimidin-2-ylsulfanyl)-acetic acid ethyl ester], for which the IC50 came to 180 nM.
The compound `CCOC(=O)CSc1ncc(Cc2cccn2C)c(N)n1` [Example 4, [4-Amino-5-(1-methyl-1H-pyrrol-2-ylmethyl)-pyrimidin-2-ylsulfanyl]-acetic acid ethyl ester] came in with a 50% inhibitory concentration (IC50) of 380 nM.
Same read-out and setting: the value for `CCOC(=O)CSc1ncc(Cc2ccc(Br)cc2)c(N)n1` [Example 6, [4-Amino-5-(4-bromo-benzyl)-pyrimidin-2-ylsulfanyl]-acetic acid ethyl ester] was 180 nM; that for `CCOC(=O)CSc1ncc(C(=O)OCC)c(N)n1` [Example 19, 4-Amino-2-ethoxycarbonylmethylsulfanyl-pyrimidine-5-carboxylic acid ethyl ester] was 270 nM; that for `CCOC(=O)CSc1ncc(Cc2cccs2)c(NCC(C)C)n1` [Example 31] was 160 nM.
Consider `CCNc1nc(SCC(=O)OCC)ncc1Cc1cccs1` [Example 21, (4-Ethylamino-5-thiophen-2-ylmethyl-pyrimidin-2-ylsulfanyl)-acetic acid ethyl ester], for which the IC50 is 600 nM.
On the same count and under the same terms, the value for `Nc1nc(SCC(=O)OCC2CC2)ncc1Cc1ccccc1` [Example 29, (4-Amino-5-benzyl-pyrimidin-2-ylsulfanyl)-acetic acid cyclopropylmethyl ester] was 200 nM.
For `C=CCSc1ncc(Cc2cccs2)c(N)n1` [Example 9, 2-Allylsulfanyl-5-thiophen-2-ylmethyl-pyrimidin-4-ylamine], the IC50 stood at 2790 nM.
As to `Nc1nc(SCc2ncon2)ncc1Cc1cccs1` [Example 11, 2-([1,2,4]Oxadiazol-3-ylmethylsulfanyl)-5-thiophen-2-ylmethyl-pyrimidin-4-ylamine], the IC50 was found to be 400 nM. Compared with the last compound, the IC50 is about 7-fold lower.
The same measure, in the same setting: next, `CCOC(=O)CSc1ncc(Cc2ccccc2)c(N)n1` [Example 3, (4-Amino-5-benzyl-pyrimidin-2-ylsulfanyl)-acetic acid ethyl ester]: 140 nM; `C=CCOC(=O)CSc1ncc(Cc2ccccc2)c(N)n1` [Example 22, (4-Amino-5-benzyl-pyrimidin-2-ylsulfanyl)-acetic acid allyl ester]: 120 nM.
